Measured values from patent US20160304957A1, “TREATMENT AND MODULATION OF GENE EXPRESSION AND SKIN AGING” (DSM NUTRITIONAL PRODUCTS LTD., priority 2006, published 2016).

How the values were obtained:
Assay in all cases: QRT-PCR gene expression in HaCaT cells with or without UVA
Type in all cases: cell-based, human
RARβ = tested on: RARβ
Protocol: (§1) HaCaT cells were obtained from Prof. Fusenig, German Cancer Research Centre, Heidelberg. […] The accuracy of cell counting was approximately 99%.
(§2) On day 3 of the experiment, cells were washed six times with Ca/Mg-free PBS containing 2% BSA, and then irradiated with light with a Hönle sun lamp Sol 500 (Dr. Hönle, Plannegg, Germany) at a dose of 270 kJ/m^2 in Ca/Mg-free PBS (2 hour exposure time at […]). The experimental schedule was chosen because the cells had optimal UVA sensitivity after 48 hours in culture. […] Confluent cultures were much less sensitive to irradiation.
(§3) After irradiation, the cells were supplied with fresh β-carotene-containing serum-free medium and kept in the incubator at 37° C., 5% CO2 until harvest of the samples. In experiments in which the half-life of ^1O2 was prolonged by D2O to enhance its effect, PBS was prepared in D2O, instead of in H2O, as it was done for the standard conditions described above. Cells were washed twice in D2O-PBS prior to irradiation in D2O-PBS. After irradiation, cells were maintained with fresh β-carotene-containing serum-free medium. Sham controls were treated in an identical manner, by placing them under the solar simulator but shielded from light.
(§4) Total RNA was isolated by using Trizol™ (Invitrogen, Basel, Switzerland) according to the instructions of the manufacturer. Random-primed cDNA was synthesized using the Superscript pre-amplification system for first strand cDNA synthesis (Invitrogen).
(§5) cDNA corresponding to 10 ng total RNA was used as template to quantify the relative RNA expression of the genes of interest by TaqMan® real time PCR.
(§6) The PCR analyses were carried out in triplicate and in a multiplex setup, using 18S rRNA as a calibrator gene. The rRNA primers were used at a final concentration of 50 nM, the probe at 100 nM. For quantification of the genes of interest, the primer concentrations were optimized for sensitivity of template detection. […] PCR reactions were carried out for 40 cycles of 95° C. for 15 seconds and 60° C. for 1 minute in an ABI7700 (Applied Biosystems, Rotkreuz, Switzerland). Regulation of gene expression was calculated as described in user bulletin #2 provided by the manufacturer. A threshold cycle (“CT”) is the first PCR cycle in which an amplification signal is detected. Expression levels are given as δCT values. The δCT value describes the level of gene expression as the average PCR cycle, in which the gene of interest was detected first (CT value), subtracted by the CT value of the calibrator gene 18S rRNA (CTgene of interest−CTcalibrating gene), 18S rRNA served as a measure for the amount of template in the reaction. Routinely, 18S rRNA was detected between PCR cycle 12 and 13 (SE=standard error) A low δCT corresponds to a high mRNA level.
(§7) HaCaT cells were pretreated for 2 days with 0.5, 1.5 or 3 μM β-carotene. The cells were irradiated with UVA (270 kJ/m^2) either in D2O-containing PBS or in H2O-containing PBS, to analyze ^1O2 inducibility of genes. Gene expression 5 hours after UVA irradiation was analyzed by QRT-PCR. Values are geometric means±standard error from three independent experiments. Upregulations greater than 1.5-fold are labelled in bold black, downregulations below 0.66-fold are bold grey.

RXRα = tested on: RXRα
Protocol: as §1, §2, §3, §4, §5, §6, §7

[1] = tested on: β-Carotene-15,15′-oxygenase
Protocol: as §1, §2, §3, §4, §5, §6, §7

RARγ = tested on: RARγ
Protocol: as §1, §2, §3, §4, §5, §6, §7

RXRβ = tested on: RXRβ
Protocol: as §1, §2, §3, §4, §5, §6, §7

RXRγ = tested on: RXRγ
Protocol: as §1, §2, §3, §4, §5, §6, §7

CC1=C(/C=C/C(C)=C/C=C/C(C)=C/C=C/C=C(C)/C=C/C=C(C)/C=C/C2=C(C)CCCC2(C)C)C(C)(C)CCC1 [β-carotene, All-E-β-carotene]
basal or UVA-regulated expression level of RARβ (RARβ): no significant effect
RARβ fold induction (RARβ; D2O, UVA/βC 0.5 μM): 2.49 fold
RARβ fold induction (RARβ; D2O, UVA/βC 1.5 μM): 1.69 fold
RARβ fold induction (RARβ; D2O, UVA/βC 3 μM): 2.35 fold
RARβ fold induction (RARβ; D2O, βC 0.5 μM): 1.25 fold
RARβ fold induction (RARβ; D2O, βC 1.5 μM): 2.46 fold
RARβ fold induction (RARβ; D2O, βC 3 μM): 2.79 fold
RARβ fold induction (RARβ; H2O, UVA/βC 0.5 μM): 0.44 fold
RARβ fold induction (RARβ; H2O, UVA/βC 1.5 μM): 0.90 fold
RARβ fold induction (RARβ; H2O, UVA/βC 3 μM): 0.86 fold
RARβ fold induction (RARβ; H2O, βC 0.5 μM): 0.81 fold
RARβ fold induction (RARβ; H2O, βC 1.5 μM): 1.20 fold
RARβ fold induction (RARβ; H2O, βC 3 μM): 1.84 fold
RARβ induction, dose-dependent (RARβ; predominantly in unirradiated cells): non-significantly induced
basal or UVA-regulated expression level of RXRα (RXRα): no significant effect
RXRα fold induction (RXRα; D2O, UVA/βC 0.5 μM): 0.68 fold
RXRα fold induction (RXRα; D2O, UVA/βC 1.5 μM): 0.31 fold
RXRα fold induction (RXRα; D2O, UVA/βC 3 μM): 0.38 fold
RXRα fold induction (RXRα; D2O, βC 0.5 μM): 1.25 fold
RXRα fold induction (RXRα; D2O, βC 1.5 μM): 0.82 fold
RXRα fold induction (RXRα; D2O, βC 3 μM): 1.06 fold
RXRα fold induction (RXRα; H2O, UVA/βC 0.5 μM): 0.96 fold
RXRα fold induction (RXRα; H2O, UVA/βC 1.5 μM): 0.27 fold
RXRα fold induction (RXRα; H2O, UVA/βC 3 μM): 0.58 fold
RXRα fold induction (RXRα; H2O, βC 0.5 μM): 0.89 fold
RXRα fold induction (RXRα; H2O, βC 1.5 μM): 0.98 fold
RXRα fold induction (RXRα; H2O, βC 3 μM): 1.13 fold
βC-15,15′-oxygenase fold induction ([1]; D2O, UVA/βC 0.5 μM): 1.08 fold
βC-15,15′-oxygenase fold induction ([1]; D2O, UVA/βC 1.5 μM): 0.90 fold
βC-15,15′-oxygenase fold induction ([1]; D2O, UVA/βC 3 μM): 0.91 fold
βC-15,15′-oxygenase fold induction ([1]; D2O, βC 0.5 μM): 1.19 fold
βC-15,15′-oxygenase fold induction ([1]; D2O, βC 1.5 μM): 1.03 fold
βC-15,15′-oxygenase fold induction ([1]; D2O, βC 3 μM): 0.43 fold
βC-15,15′-oxygenase fold induction ([1]; H2O, UVA/βC 0.5 μM): 0.60 fold
βC-15,15′-oxygenase fold induction ([1]; H2O, UVA/βC 1.5 μM): 0.84 fold
βC-15,15′-oxygenase fold induction ([1]; H2O, UVA/βC 3 μM): 0.91 fold
βC-15,15′-oxygenase fold induction ([1]; H2O, βC 0.5 μM): 1.09 fold
βC-15,15′-oxygenase fold induction ([1]; H2O, βC 1.5 μM): 1.19 fold
βC-15,15′-oxygenase fold induction ([1]; H2O, βC 3 μM): 1.08 fold
β-Carotene-15,15′-oxygenase RNA level ([1]; β-carotene, UVA, D2O treatments): not significantly influenced
basal or UVA-regulated expression level of RARγ (RARγ): no significant effect
RARγ fold induction (RARγ; D2O, UVA/βC 0.5 μM): 0.63 fold
RARγ fold induction (RARγ; D2O, UVA/βC 1.5 μM): 0.67 fold
RARγ fold induction (RARγ; D2O, UVA/βC 3 μM): 0.76 fold
RARγ fold induction (RARγ; D2O, βC 0.5 μM): 0.94 fold
RARγ fold induction (RARγ; D2O, βC 1.5 μM): 1.11 fold
RARγ fold induction (RARγ; D2O, βC 3 μM): 1.12 fold
RARγ fold induction (RARγ; H2O, UVA/βC 0.5 μM): 0.85 fold
RARγ fold induction (RARγ; H2O, UVA/βC 1.5 μM): 0.15 fold
RARγ fold induction (RARγ; H2O, UVA/βC 3 μM): 0.54 fold
RARγ fold induction (RARγ; H2O, βC 0.5 μM): 0.74 fold
RARγ fold induction (RARγ; H2O, βC 1.5 μM): 0.86 fold
RARγ fold induction (RARγ; H2O, βC 3 μM): 0.90 fold
basal or UVA-regulated expression level of RXRβ (RXRβ): no significant effect
RXRβ fold induction (RXRβ; D2O, UVA/βC 0.5 μM): 1.23 fold
RXRβ fold induction (RXRβ; D2O, UVA/βC 1.5 μM): 1.09 fold
RXRβ fold induction (RXRβ; D2O, UVA/βC 3 μM): 0.76 fold
RXRβ fold induction (RXRβ; D2O, βC 0.5 μM): 1.32 fold
RXRβ fold induction (RXRβ; D2O, βC 1.5 μM): 1.17 fold
RXRβ fold induction (RXRβ; D2O, βC 3 μM): 1.61 fold
RXRβ fold induction (RXRβ; H2O, UVA/βC 0.5 μM): 0.93 fold
RXRβ fold induction (RXRβ; H2O, UVA/βC 1.5 μM): 0.71 fold
RXRβ fold induction (RXRβ; H2O, UVA/βC 3 μM): 1.04 fold
RXRβ fold induction (RXRβ; H2O, βC 0.5 μM): 0.67 fold
RXRβ fold induction (RXRβ; H2O, βC 1.5 μM): 0.99 fold
RXRβ fold induction (RXRβ; H2O, βC 3 μM): 0.99 fold
basal or UVA-regulated expression level of RXRγ (RXRγ): no significant effect
RXRγ fold induction (RXRγ; D2O, UVA/βC 0.5 μM): 1.72 fold
RXRγ fold induction (RXRγ; D2O, UVA/βC 1.5 μM): 2.70 fold
RXRγ fold induction (RXRγ; D2O, UVA/βC 3 μM): 1.57 fold
RXRγ fold induction (RXRγ; D2O, βC 0.5 μM): 1.47 fold
RXRγ fold induction (RXRγ; D2O, βC 1.5 μM): 2.78 fold
RXRγ fold induction (RXRγ; D2O, βC 3 μM): 2.57 fold
RXRγ fold induction (RXRγ; H2O, UVA/βC 0.5 μM): 0.61 fold
RXRγ fold induction (RXRγ; H2O, UVA/βC 1.5 μM): 0.08 fold
RXRγ fold induction (RXRγ; H2O, UVA/βC 3 μM): 0.67 fold
RXRγ fold induction (RXRγ; H2O, βC 0.5 μM): 0.39 fold
RXRγ fold induction (RXRγ; H2O, βC 1.5 μM): 0.77 fold
RXRγ fold induction (RXRγ; H2O, βC 3 μM): 0.33 fold
